Measurements published in patent publication US20180280377A1, “Imidazo[4,5-c]quinolin-2-one Compounds and Their Use in Treating Cancer” (ASTRAZENECA AB, priority 2015, published 2018).

biological target: T1, mTOR (Homo sapiens, UniProt P42345); experiment: mTOR cellular potency assay (phospho-AKT Ser473 in MDA-MB-468 cells); type: cell-based; conditions: MDA-MB-468 cells, 2 h, phospho-AKT Ser473; Table 2; read-out: Assay d) mTOR Cell IC50
T1 construct: phosphorylation of the Akt protein at Ser473 (AKT lies downstream of PI3Kα in the signal transduction pathway) in the MDA-MB-468 cells; endogenous in cells; host or cells: MDA-MB-468 cells (ATCC HTB 132)
From the text: The following assays were used to measure the effects of the compounds of the present invention: a) ATM cellular potency assay; b) PI3K cellular potency assay; c) mTOR cellular potency assay; d) ATR cellular potency assay. During the description of the assays, generally: • i. The following abbreviations have been used: 4NQO=4-Nitroquinoline N-oxide; Ab=Antibody; BSA=Bovine Serum Albumin; CO2=Carbon Dioxide; DMEM=Dulbecco's Modified Eagle Medium; DMSO=Dimethyl Sulphoxide; EDTA=Ethylenediaminetetraacetic Acid; EGTA=Ethylene Glycol Tetraacetic Acid; ELISA=Enzyme-linked Immunosorbent Assay; EMEM=Eagle's Minimal Essential Medium; FBS=Foetal Bovine Serum; h=H(s); HRP=Horseradish Peroxidase; i.p.=intraperitoneal; PBS=Phosphate buffered saline; PBST=Phosphate buffered saline/Tween; TRIS=Tris(Hydroxymethyl)aminomethane; MTS reagent: [3-(4,5-dimethylthiazol-2-yl)-5-(3-carboxymethoxyphenyl)-2-(4-sulfophenyl)-2H-tetrazolium, inner salt, and an electron coupling reagent (phenazine methosulfate) PMS; s.c. sub-cutaneously. • ii. IC50 values were calculated using a smart fitting model in Genedata.
This assay was used to measure mTOR inhibition in cells. The aim of the phospho-AKT cell based mechanism of action assay using the Acumen Explorer is to identify inhibitors of either PI3Kα or mTOR-Rictor (Rapamycin insensitive companion of mTOR). This is measured by any decrease in the phosphorylation of the Akt protein at Ser473 (AKT lies downstream of PI3Kα in the signal transduction pathway) in the MDA-MB-468 cells following treatment with compound.
MDA-MB-468 cells (human breast adenocarcinoma #ATCC HTB 132) were seeded at 1500 cells/well in 40 μl of DMEM containing 10% FBS and 1% glutamine into Greiner 384 well black flat-bottomed plates. Cell plates were incubated for 18 h in a 37° C. incubator before dosing with compounds of Formula (I) in 100% DMSO using acoustic dispensing. Compounds were dosed in a 12 point concentration range into a randomised plate map. Control wells were generated either by dosing of 100% DMSO (max signal) or addition of a reference compound (a PI3K-62 inhibitor) that completely eliminated the pAKT signal (min control). Plates were incubated at 37° C. for 2 h; cells were then fixed by the addition of […] of a 3.7% formaldehyde solution. After 30 minutes the plates were washed with PBS using a Tecan PW384 plate washer. Wells were blocked and cells permeabilised with the addition of 40 μl of PBS containing 0.5% Tween20 and 1% Marvel™ (dried milk powder) and incubated for 60 minutes at r.t. The plates were washed with PBS containing 0.5% (v/v) Tween20 and 20 μl rabbit anti-phospho AKT Ser473 (Cell Signalling Technologies, #3787) in same PBS-Tween+1% MarvelTM was added and incubated overnight at 4° C.
Plates were washed 3 times with PBS+0.05% Tween 20 using a Tecan PW384. 20 μl of secondary antibody Alexa Fluor 488 anti-Rabbit (Molecular Probes, # A11008) diluted in PBS+0.05% Tween20 containing 1% Marvel™ was added to each well and incubated for 1 h at r.t. Plates were washed three times as before then 20 μl PBS added to each well and plates sealed with a black plate sealer.
The plates were read on an Acumen plate reader as soon as possible, measuring green fluorescence after excitation with 488 nm laser. Using this system IC50 values were generated and quality of plates was determined by control wells. Reference compounds were run each time to monitor assay performance.

| SMILES | IC50 [µM] |
| --- | --- |
| CO[C@H]1CC[C@H](n2c(=O)n(C)c3cnc4ccc(-c5ccc(N6CCC(N(C)C)CC6)nc5)cc4c32)C1 (single isomer, unassigned) [Example 32, 8-[6-[4-(dimethylamino)-1-piperidyl]-3-pyridyl]-1-[trans-3-methoxycyclopentyl]-3-methyl-imidazo[4,5-c]quinolin-2-one] | 1.5 |
| CO[C@H]1C[C@@H](n2c(=O)n(C)c3cnc4cc(F)c(-c5ccc(N6CC(N(C)C)C6)nc5)cc4c32)C1 [Example 31, 8-[6-[3-(dimethylamino)azetidin-1-yl]-3-pyridyl]-7-fluoro-1-(cis-3-methoxycyclobutyl)-3-methyl-imidazo[4,5-c]quinolin-2-one] | 12.8 |
| CN(C)[C@@H]1CCN(c2ccc(-c3ccc4ncc5c(c4c3)n([C@@H]3CCCOC3)c(=O)n5C)cn2)C1 [Example 7] | 0.616 |
| CN(C)[C@H]1CCN(c2ccc(-c3cc4c(cc3F)ncc3c4n([C@H]4CCCOC4)c(=O)n3C)cn2)C1 [Example 20] | > 30 |

Second part, the molecule after the results:

| IC50 [µM] | SMILES |
| --- | --- |
| > 15.3 | CO[C@H]1C[C@@H](n2c(=O)n(C)c3cnc4cc(F)c(-c5ccc(N6CCC(N(C)C)CC6)nc5)cc4c32)C1 [Example 42, 8-[6-[4-(dimethylamino)-1-piperidyl]-3-pyridyl]-7-fluoro-1-(cis-3-methoxycyclobutyl)-3-methyl-imidazo[4,5-c]quinolin-2-one] |
| 3.9 | CO[C@H]1C[C@@H](n2c(=O)n(C)c3cnc4ccc(-c5ccc(N6CCC(N(C)C)CC6)nc5)cc4c32)C1 [Example 36, 8-[6-[4-(dimethylamino)-1-piperidyl]-3-pyridyl]-1-(cis-3-methoxycyclobutyl)-3-methyl-imidazo[4,5-c]quinolin-2-one] |
| 7.72 | CNC1CCN(c2ccc(-c3cc4c(cc3F)ncc3c4n([C@H]4C[C@@H](OC)C4)c(=O)n3C)cn2)CC1 [Example 57, 7-Fluoro-1-(cis-3-methoxycyclobutyl)-3-methyl-8-[6-[4-(methylamino)-1-piperidyl]-3-pyridyl]imidazo[4,5-c]quinolin-2-one] |
| 0.989 | CNC1CCN(c2ccc(-c3ccc4ncc5c(c4c3)n([C@H]3C[C@@H](OC)C3)c(=O)n5C)cn2)CC1 [Example 60, 1-(cis-3-methoxycyclobutyl)-3-methyl-8-[6-[4-(methylamino)-1-piperidyl]-3-pyridyl]imidazo[4,5-c]quinolin-2-one] |
